Tests used:
Format in all cases: functional
[1] = test system: CCRF-CEM; assay: Growth inhibition of human CCRF-CEM cells at 10^-5 M incubated for 48 hrs by sulforhodamine B assay; details: read-out: GI
[2] = test system: HL-60(TB); assay: Growth inhibition of human HL-60(TB) cells at 10^-5 M incubated for 48 hrs by sulforhodamine B assay; details: HL-60, 48 h, read-out: GI
[3] = test system: MOLT-4; assay: Growth inhibition of human MOLT4 cells at 10^-5 M incubated for 48 hrs by sulforhodamine B assay; details: MOLT-4, 48 h, read-out: GI
[4] = test system: SR; assay: Growth inhibition of human SR cells at 10^-5 M incubated for 48 hrs by sulforhodamine B assay; details: read-out: GI
[5] = test system: A549; assay: Growth inhibition of human A549/ATCC cells at 10^-5 M incubated for 48 hrs by sulforhodamine B assay; details: A549, 48 h, read-out: GI
[6] = test system: NCI-H23; assay: Growth inhibition of human NCI-H23 cells at 10^-5 M incubated for 48 hrs by sulforhodamine B assay; details: NCI-H23, 48 h, read-out: GI
[7] = test system: NCI-H322M; assay: Growth inhibition of human NCI-H322M cells at 10^-5 M incubated for 48 hrs by sulforhodamine B assay; details: read-out: GI
[8] = test system: NCI-H460; assay: Growth inhibition of human NCI-H460 cells at 10^-5 M incubated for 48 hrs by sulforhodamine B assay; details: NCI-H460, 48 h, read-out: GI
[9] = test system: NCI-H522; assay: Growth inhibition of human NCI-H522 cells at 10^-5 M incubated for 48 hrs by sulforhodamine B assay; details: NCI-H522, 48 h, read-out: GI
[10] = test system: HCT-116; assay: Growth inhibition of human HCT116 cells at 10^-5 M incubated for 48 hrs by sulforhodamine B assay; details: HCT-116, 48 h, read-out: GI
[11] = test system: HCT-15; assay: Growth inhibition of human HCT15 cells at 10^-5 M incubated for 48 hrs by sulforhodamine B assay; details: HCT-15, 48 h, read-out: GI
[12] = test system: SW-620; assay: Growth inhibition of human SW620 cells at 10^-5 M incubated for 48 hrs by sulforhodamine B assay; details: SW-620, 48 h, read-out: GI
[13] = test system: SF-268; assay: Growth inhibition of human SF268 cells at 10^-5 M incubated for 48 hrs by sulforhodamine B assay; details: SF-268, 48 h, read-out: GI
[14] = test system: SF-295; assay: Growth inhibition of human SF295 cells at 10^-5 M incubated for 48 hrs by sulforhodamine B assay; details: SF-295, 48 h, read-out: GI
[15] = test system: SNB-19; assay: Growth inhibition of human SNB19 cells at 10^-5 M incubated for 48 hrs by sulforhodamine B assay; details: SNB-19, 48 h, read-out: GI
[16] = test system: SNB-75; assay: Growth inhibition of human SNB75 cells at 10^-5 M incubated for 48 hrs by sulforhodamine B assay; details: SNB-75, 48 h, read-out: GI
[17] = test system: LOX IMVI; assay: Growth inhibition of human LOXIMVI cells at 10^-5 M incubated for 48 hrs by sulforhodamine B assay; details: read-out: GI
[18] = test system: Malme-3M; assay: Growth inhibition of human MALME-3M cells at 10^-5 M incubated for 48 hrs by sulforhodamine B assay; details: read-out: GI
[19] = test system: M14; assay: Growth inhibition of human M14 cells at 10^-5 M incubated for 48 hrs by sulforhodamine B assay; details: M14, 48 h, read-out: GI
[20] = test system: SK-MEL-28; assay: Growth inhibition of human SK-MEL-28 cells at 10^-5 M incubated for 48 hrs by sulforhodamine B assay; details: SK-MEL-28, 48 h, read-out: GI
[21] = test system: SK-MEL-5; assay: Growth inhibition of human SK-MEL-5 cells at 10^-5 M incubated for 48 hrs by sulforhodamine B assay; details: SK-MEL-5, 48 h, read-out: GI
[22] = test system: UACC-62; assay: Growth inhibition of human UACC62 cells at 10^-5 M incubated for 48 hrs by sulforhodamine B assay; details: UACC-62, 48 h, read-out: GI
[23] = test system: IGROV-1; assay: Growth inhibition of human IGROV1 cells at 10^-5 M incubated for 48 hrs by sulforhodamine B assay; details: IGROV-1, 48 h, read-out: GI
[24] = test system: OVCAR-3; assay: Growth inhibition of human OVCAR3 cells at 10^-5 M incubated for 48 hrs by sulforhodamine B assay; details: OVCAR-3, 48 h, read-out: GI
[25] = test system: OVCAR-5; assay: Growth inhibition of human OVCAR5 cells at 10^-5 M incubated for 48 hrs by sulforhodamine B assay; details: OVCAR-5, 48 h, read-out: GI
[26] = test system: OVCAR-8; assay: Growth inhibition of human OVCAR8 cells at 10^-5 M incubated for 48 hrs by sulforhodamine B assay; details: OVCAR-8, 48 h, read-out: GI
[27] = test system: NCI/ADR-RES; assay: Growth inhibition of human NCI/ADR-RES cells at 10^-5 M incubated for 48 hrs by sulforhodamine B assay; details: read-out: GI
[28] = test system: SK-OV-3; assay: Growth inhibition of human SKOV3 cells at 10^-5 M incubated for 48 hrs by sulforhodamine B assay; details: SK-OV-3, 48 h, read-out: GI
[29] = test system: 786-0; assay: Growth inhibition of human 786-0 cells at 10^-5 M incubated for 48 hrs by sulforhodamine B assay; details: 786-0, 48 h, read-out: GI
[30] = test system: A498; assay: Growth inhibition of human A498 cells at 10^-5 M incubated for 48 hrs by sulforhodamine B assay; details: A498, 48 h, read-out: GI
[31] = test system: ACHN; assay: Growth inhibition of human ACHN cells at 10^-5 M incubated for 48 hrs by sulforhodamine B assay; details: read-out: GI
[32] = test system: RXF 393; assay: Growth inhibition of human RXF393 cells at 10^-5 M incubated for 48 hrs by sulforhodamine B assay; details: RXF 393, 48 h, read-out: GI
[33] = test system: SN12C; assay: Growth inhibition of human SN12C cells at 10^-5 M incubated for 48 hrs by sulforhodamine B assay; details: read-out: GI
[34] = test system: TK-10; assay: Growth inhibition of human TK10 cells at 10^-5 M incubated for 48 hrs by sulforhodamine B assay; details: TK-10, 48 h, read-out: GI
[35] = test system: DU-145; assay: Growth inhibition of human DU145 cells at 10^-5 M incubated for 48 hrs by sulforhodamine B assay; details: DU-145, 48 h, read-out: GI
[36] = test system: MCF7; assay: Growth inhibition of human MCF7 cells at 10^-5 M incubated for 48 hrs by sulforhodamine B assay; details: MCF7, 48 h, read-out: GI
[37] = test system: MDA-MB-231; assay: Growth inhibition of human MDA-MB-231 cells at 10^-5 M incubated for 48 hrs by sulforhodamine B assay; details: MDA-MB-231, 48 h, read-out: GI
[38] = test system: Hs-578T; assay: Growth inhibition of human Hs 578T cells at 10^-5 M incubated for 48 hrs by sulforhodamine B assay; details: read-out: GI
[39] = test system: T47D; assay: Growth inhibition of human T47D cells at 10^-5 M incubated for 48 hrs by sulforhodamine B assay; details: read-out: GI

Structure (SMILES)	inhibition of growth at 10 µM [1]	inhibition of growth at 10 µM [2]	inhibition of growth at 10 µM [3]	inhibition of growth at 10 µM [4]	inhibition of growth at 10 µM [5]	inhibition of growth at 10 µM [6]	inhibition of growth at 10 µM [7]	inhibition of growth at 10 µM [8]	inhibition of growth at 10 µM [9]	inhibition of growth at 10 µM [10]	inhibition of growth at 10 µM [11]	inhibition of growth at 10 µM [12]	inhibition of growth at 10 µM [13]	inhibition of growth at 10 µM [14]	inhibition of growth at 10 µM [15]	inhibition of growth at 10 µM [16]	inhibition of growth at 10 µM [17]	inhibition of growth at 10 µM [18]	inhibition of growth at 10 µM [19]	inhibition of growth at 10 µM [20]	also measured
O=C1Nc2c(sc3ccc(Cl)cc23)C(c2cccc([N+](=O)[O-])c2)N1 (stereo unspecified)	-13.9%	1.94%	11%	20.8%	1.5%	9.8%	10.4%	3.38%	9.73%	5.37%	-4.66%	-3.52%	6.35%	1.41%	5.92%	22.8%	4.86%	16.6%	2.62%	-5.57%	inhibition of growth at 10 µM [21]: 2.85%; inhibition of growth at 10 µM [22]: 8.84%; inhibition of growth at 10 µM [23]: 15.6%; inhibition of growth at 10 µM [24]: -1.08%; inhibition of growth at 10 µM [25]: 0.73%; inhibition of growth at 10 µM [26]: 4.06%; inhibition of growth at 10 µM [27]: 6.5%; inhibition of growth at 10 µM [28]: 3.88%; inhibition of growth at 10 µM [29]: 4.42%; inhibition of growth at 10 µM [30]: 15.5%; inhibition of growth at 10 µM [31]: 9.21%; inhibition of growth at 10 µM [32]: -8.11%; inhibition of growth at 10 µM [33]: 7.07%; inhibition of growth at 10 µM [34]: -4.8%; inhibition of growth at 10 µM [35]: -4.61%; inhibition of growth at 10 µM [36]: 21.8%; inhibition of growth at 10 µM [37]: 12.5%; inhibition of growth at 10 µM [38]: 3.78%; inhibition of growth at 10 µM [39]: 16.3%
CCOC(=O)CSC1=Nc2c(sc3ccc(Cl)cc23)C(c2cccc([N+](=O)[O-])c2)N1 (stereo unspecified)	-8.55%	3.55%	14.6%	21.4%	2.51%	9.36%	7.77%	-0.74%	4.34%	3.88%	-2.2%	-4.96%	3.8%	-0.53%	-0.3%	11.3%	0.14%	5.55%	-3.62%	-14%	inhibition of growth at 10 µM [21]: 3.95%; inhibition of growth at 10 µM [22]: 6.62%; inhibition of growth at 10 µM [23]: 21.6%; inhibition of growth at 10 µM [24]: 0.63%; inhibition of growth at 10 µM [25]: -1.2%; inhibition of growth at 10 µM [26]: -1.34%; inhibition of growth at 10 µM [27]: 1.65%; inhibition of growth at 10 µM [28]: 8.27%; inhibition of growth at 10 µM [29]: -2.24%; inhibition of growth at 10 µM [30]: 6.9%; inhibition of growth at 10 µM [31]: 6.61%; inhibition of growth at 10 µM [32]: -12.8%; inhibition of growth at 10 µM [33]: 2.9%; inhibition of growth at 10 µM [34]: -16.2%; inhibition of growth at 10 µM [35]: -8.66%; inhibition of growth at 10 µM [36]: 20.1%; inhibition of growth at 10 µM [37]: 9.26%; inhibition of growth at 10 µM [38]: -3.04%; inhibition of growth at 10 µM [39]: 22.6%
O=C1Nc2c(sc3ccc(Cl)cc23)C(c2ccc3ccccc3c2)N1 (stereo unspecified)	-13.3%	5.39%	12.9%	20.9%	4.41%	11.7%	9.44%	2.77%	11.9%	-4.42%	1.48%	1.75%	6.94%	2.29%	2.49%	21.5%	-0.62%	17.3%	6.72%	3.5%	inhibition of growth at 10 µM [21]: 1.82%; inhibition of growth at 10 µM [22]: -1.09%; inhibition of growth at 10 µM [23]: 17.4%; inhibition of growth at 10 µM [24]: 3.83%; inhibition of growth at 10 µM [25]: 8.06%; inhibition of growth at 10 µM [26]: 6.44%; inhibition of growth at 10 µM [27]: -2.33%; inhibition of growth at 10 µM [28]: 16.8%; inhibition of growth at 10 µM [29]: 6.06%; inhibition of growth at 10 µM [30]: 15.2%; inhibition of growth at 10 µM [31]: 10.1%; inhibition of growth at 10 µM [32]: -10.1%; inhibition of growth at 10 µM [33]: 10.9%; inhibition of growth at 10 µM [34]: 15.4%; inhibition of growth at 10 µM [35]: -6.96%; inhibition of growth at 10 µM [36]: 22.5%; inhibition of growth at 10 µM [37]: 14.8%; inhibition of growth at 10 µM [38]: 3.46%; inhibition of growth at 10 µM [39]: 24.2%
O=C1Nc2c(sc3ccc(Cl)cc23)C(c2cccc(Br)c2)N1 (stereo unspecified)	-14.4%	7.88%	5.84%	20.9%	5.34%	9.39%	5.33%	-0.32%	-0.2%	4.12%	-0.85%	-0.2%	0.19%	-0.96%	0.22%	15.2%	-3.37%	2.75%	1.96%	-12.8%	inhibition of growth at 10 µM [21]: 3.66%; inhibition of growth at 10 µM [22]: 8.42%; inhibition of growth at 10 µM [23]: 20.8%; inhibition of growth at 10 µM [24]: 6.24%; inhibition of growth at 10 µM [25]: -1.01%; inhibition of growth at 10 µM [26]: -2.63%; inhibition of growth at 10 µM [27]: 12.2%; inhibition of growth at 10 µM [28]: 19.7%; inhibition of growth at 10 µM [29]: -1.2%; inhibition of growth at 10 µM [30]: -8.2%; inhibition of growth at 10 µM [31]: 5.37%; inhibition of growth at 10 µM [32]: -18.1%; inhibition of growth at 10 µM [33]: 2.71%; inhibition of growth at 10 µM [34]: -23.4%; inhibition of growth at 10 µM [35]: -8.69%; inhibition of growth at 10 µM [36]: -8.69%; inhibition of growth at 10 µM [37]: 6.83%; inhibition of growth at 10 µM [38]: -5.56%; inhibition of growth at 10 µM [39]: 13%

Source: ChEMBL document CHEMBL4414672, “Synthesis of certain benzothieno[3,2-d]pyrimidine derivatives as a selective SIRT2 inhibitors” (Eur J Med Chem, 2020)
